{"source": "paper PMC6718453", "about": "(Frontiers in Aging Neuroscience, 2019)", "molecular_target": "acetylcholinesterase (AChE)", "data": [{"smiles": "O=C(/C=C/C=C/c1ccc2c(c1)OCO2)N1CCCCC1", "note": "[piperine]", "values": [{"measurement": "IC50 ± SEM", "value": "76.6 ± 0.08", "unit": "µg/mL"}]}]}
